In patent US11401271B2, “Fused heterocyclic compound, pyrazole-ring-containing fused heterocyclic compound, agricultural composition containing thereof, and method of using the composition” (SOUTH CHINA AGRICULTURAL UNIVERSITY, priority 2017, dated 2022):
Like-named read-outs stand apart in the source and are kept apart here.

How the values were obtained:
Assay in all cases: whole plant or invertebrate
Format in all cases: in vivo
[1] = system: Aphis craccivora; conditions: for mortality at 500 ppm: Aphis craccivora, 24 h, read-out: Aphis craccivora Mortality (%) 500 ppm; for Aphis craccivora Mortality (%): immersion 5 seconds, counted after 24 hours
How it was run: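 Wingless adults feeding on bean sprouts were dipped with the sprouts for 5 s in 500 ppm compound in aqueous 0.05% Tween-80, air-dried, then held at 23° C. Dead aphids counted after 24 h, triplicate, with 0.05% Tween-80 as control. Mortality (%) = (control live − treated live)/control live × 100.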

[2] = system: Plutella xylostella; conditions: for mortality at 500 ppm: Plutella xylostella, read-out: Plutella xylostella Mortality (%) 500 ppm
How it was run: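 Cabbage leaf discs dipped 5 s in compound at 500 ppm (0.05% Tween-80 aqueous), air-dried, fed to about 35 2nd-instar larvae at 28° C., triplicate. Dead larvae counted after 24 h; mortality (%) corrected against Tween-80 control.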

[3] = system: Spodoptera exigua; conditions: for mortality at 500 ppm: Spodoptera exigua, 24 h, read-out: Spodoptera exigua Mortality (%) 500 ppm
How it was run: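 Cabbage leaf discs dipped 5 s in 500 ppm compound (0.05% Tween-80 aqueous), air-dried, fed to about 35 2nd-instar larvae at 28° C, three replicates. Deaths counted at 24 h; mortality corrected against Tween-80 control.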

[4] = system: Solenopsis invicta; conditions: water test tube poison-feeding; for mortality at 100 ppm: Solenopsis invicta
How it was run: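 Fire ants fed compound by water test-tube poison-feeding at 100 ppm in aqueous 0.05% Tween-80/5% honey (from 10 g/L DMSO stock), kept at 25 °C. Live and dead ants counted at 24 and 72 h; mortality (%) calculated relative to live ants in the untreated control.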

[5] = 24 h, read-out: Solenopsis invicta Mortality (%) 100 ppm 24 h, 100 ppm, 24 h
[6] = 72 h, read-out: Solenopsis invicta Mortality (%) 100 ppm 72 h, 100 ppm, 72 h
[7] = 500 ppm, 2nd-instar larvae, leaf immersion feeding

Row | Structure (SMILES) | mortality at 500 ppm [1] [%] | mortality at 500 ppm [2] [%] | mortality at 500 ppm [3] [%] | mortality at 100 ppm [4, 5] [%] | mortality at 100 ppm [4, 6] [%] | Aphis craccivora Mortality (%) ([1]; 500 ppm, wingless adults) | Plutella xylostella Mortality (%) [2, 7] [%] | Spodoptera exigua Mortality (%) [3, 7] [%] | Solenopsis invicta Mortality (%) 24 h ([4]; 100 ppm, 24 h) [%] | Solenopsis invicta Mortality (%) 72 h ([4]; 100 ppm, 72 h) [%] | also measured
1 | CS(=O)(=O)Nc1cc2n(n1)-c1cnccc1C(F)(CC(F)(F)F)N2 (stereo not drawn) [Compound A42] | 100 | 100 | 100 | 44 | 100 | – | – | – | – | – | –
2 | N#Cc1nn2c(c1[S+]([O-])C(F)(F)F)NC(Cc1ccccc1)(C(=O)C(F)(F)F)c1cc(C(F)(F)F)cnc1-2 (stereo not drawn) [a-27] | – | – | – | – | – | – | – | – | – | – | Aphis craccivora Mortality (%) 500 ppm ([1]; 500 ppm, wingless adults, impregnation method, 24 hours): 100%; Plutella xylostella Mortality (%) 500 ppm [2, 7]: 100%; Spodoptera exigua Mortality (%) 500 ppm ([3]; 500 ppm, 2nd-instar larvae, leaf immersion feeding, 24 hours): 100%; Solenopsis invicta Mortality (%) 100 ppm 24 h ([4]; 100 ppm, 24 h): 25%; Solenopsis invicta Mortality (%) 100 ppm 72 h ([4]; 100 ppm, 72 h): 100%
3 | COC(=O)/C=C/C1(CC#N)Nc2c([S+](C)[O-])c(C(C)=O)nn2-c2c(Cl)cc(C(F)(F)F)cc21 (stereo not drawn) [Compound C60] | 100 | 90 | 92 | 25 | 92 | – | – | – | – | – | –
4 | CNC(=O)C1Nc2c([S+]([O-])C(F)(F)F)c(C(F)(F)F)nn2-c2c(Cl)cc(C(F)(F)F)cc21 (stereo not drawn) [d-109] | – | – | – | – | – | 99 | 96 | 85 | 28 | 85 | –
5 | [O-][S+](c1c(C(F)(F)F)nn2c1NC(Br)c1cc(C(F)(F)F)cc(Cl)c1-2)C(F)(F)F (stereo not drawn) [d-114] | – | – | – | – | – | 100 | 100 | 87 | 24 | 90 | –
6 | CCOC(=O)C1(CC(=O)OC(C(F)(F)F)C(F)(F)F)Nc2c([S+]([O-])C(F)(F)F)c(C#N)nn2-c2c(Cl)cc(C(F)(F)F)cc21 (stereo not drawn) [d-42] | – | – | – | – | – | 100 | 100 | 100 | 31 | 100 | –
7 | Nc1ccc2c(c1)-n1nc(C(F)(F)F)c(Br)c1NC2(C(F)(F)F)C(F)(F)F [Compound A11] | 100 | 100 | 100 | 34 | 100 | – | – | – | – | – | –
8 | COC(=O)CC1(C(=O)OC)Nc2c(C(F)(F)F)c(C#N)nn2-c2cc(C(F)(F)F)cc(Cl)c21 (stereo not drawn) [c-2] | – | – | – | – | – | 100 | 95 | 90 | 20 | 97 | –
9 | COC(=O)C(C)C1Nc2c([S+]([O-])C(F)(F)F)c(C#N)nn2-c2cncc(Cl)c21 (stereo not drawn) [b-66] | – | – | – | – | – | 100 | 96 | 91 | 28 | 97 | –
10 | N#Cc1nn2c(c1[S+]([O-])C(F)(F)F)NC(Cl)c1cc(C(F)(F)F)cc(Cl)c1-2 (stereo not drawn) [d-90] | – | – | – | – | – | 90 | 82 | 80 | 16 | 85 | –
11 | C=CC1(C(F)(F)F)Nc2c(-c3cc(C)oc3C)c(C#N)nn2-c2c(Cl)cc(C(F)(F)F)cc21 (stereo not drawn) [Compound C12] | 100 | 100 | 91 | 18 | 95 | – | – | – | – | – | –
12 | CNC1(CC#N)Nc2c([S+]([O-])C(F)(F)F)c(C#N)nn2-c2cncc(Cl)c21 (stereo not drawn) [b-43] | – | – | – | – | – | 89 | 89 | 80 | 19 | 90 | –
13 | COC(=O)CC1(C(=O)OC)Nc2c(OC(F)(F)F)c(C#N)nn2-c2c(Cl)cc(C(F)(F)F)cc21 (stereo not drawn) [d-3] | – | – | – | – | – | 100 | 100 | 98 | 21 | 87 | –
14 | CC(=O)Nc1c(C#N)nn2c1NC(C)(C)c1ccccc1-2 [Compound A17] | 100 | 100 | 100 | 34 | 100 | – | – | – | – | – | –
15 | C=CC1(CCl)Nc2c([S+](C)[O-])c(C(C)=O)nn2-c2c(Cl)cc(C(F)(F)F)cc21 (stereo not drawn) [Compound C19] | 100 | 90 | 90 | 18 | 70 | – | – | – | – | – | –
